{"source": "patent US20130172294A1", "about": "“Treatment with VB-201” (Vascular Biogenics Ltd., priority 2010, published 2013)", "key": {"[1]": {"test_system": "adjuvant-induced arthritis", "details": "in vivo animal model; cited from earlier work"}, "[2]": {"test": "Safety and tolerability, food and coating study (Example 3)", "assay_type": "in vivo, human", "from_the_text": "Safety and tolerability of VB-201 was judged by evaluating the incidence of abnormal findings in the following measurements: vital signs: systolic and diastolic blood pressure, heart rate, respiratory rate, body temperature; physical examination; 12-lead electrocardiogram; laboratory tests of blood samples for: complete blood count, prothrombin time/partial thromboplastin time, LDL- and HDL-cholesterol, total cholesterol, triglycerides, glucose, blood urea nitrogen, sodium, potassium, creatinine, calcium, phosphorus, creatinine phosphokinase, lactate dehydrogenase, aspartate transaminase, alanine transaminase, γ-glutamyl transferase, alkaline phosphatase, protein, albumin, total bilirubin, total IgM and IgG antibodies, interleukin-12/23 p40, tumor necrosis factor-α, and interleukin-6, as well as routine urinalysis; and all adverse events, whether or not considered serious, and whether or not considered related to the investigational agent, according to the criteria for Good Clinical Practice. Treatment-emergent adverse events were defined as any adverse event that started on or after administration of the first dose of VB-201, and no more than 30 days after administration of the last dose, or are ongoing at the time of the first dose and worsened in severity or frequency during treatment. […]"}, "[3]": {"test_system": "collagen-induced arthritis", "details": "in vivo animal model; cited from earlier work"}, "interleukin-23 (IL-23)": {"test_system": "interleukin-23 (IL-23)", "test": "Plasma cytokine assay, IL-23 (Example 5)", "assay_type": "in vivo, human", "description": "Acquisition of samples was performed using FacsCalibur (Becton Dickinson)."}, "[4]": {"test_system": "Human monocytes (CD14+ cells)", "description": "Human monocytes (CD14^+ cells) were isolated from whole blood of healthy donors. Following PBMC (peripheral blood mononuclear cell) separation from whole blood using Ficoll-Paque and leucosep tubes, CD14^+ cells were separated using specific CD14 micro beads (Miltenyi Biotech). Purity of the CD14^+ population was validated using specific monoclonal CD14 antibody by FACS analysis. For chemoattractant, RANTES (100 ng/ml), MIP-1α (macrophage inflammatory protein-1a; 50 ng/ml), MCP-1 (monocyte chemotactic protein-1; 50 ng/ml) or MCP-3 (50 ng/ml) were dissolved in 2% fetal bovine serum/RPMI-1640 and placed at the lower chamber of QCM™ 24-well migration assay plate (Corning-Costar). CD14+ cells were pre-incubated for 30 minutes with solvent (1% ethanol/PBS) or VB-201 at 8 μM (or different concentrations ranging between 1.7-17 μM, not shown). Migration assay was conducted by seeding 300,000 treated cells in the upper chamber, followed by incubated for 3-4 hours, after which the number of migrated cells was determined by FACS (fluorescence activated cell sorting).\nVB-201 was tested in vitro as described hereinabove for possible effects on migration of human primary monocytes towards inflammatory chemokines using a trans-well assay. For a broad analysis, several chemoattractants which serve as ligands for different chemokine receptors were used. Two assays were performed in triplicates for each chemoattractant."}, "C-reactive protein (CRP)": {"test_system": "C-reactive protein (CRP)", "description": "C-reactive protein (CRP) levels in plasma samples were measured using a CRP Latex assay kit (Olympus) and an AU400® immuno-analyzer (Olympus).\nA randomized, double-blind, placebo-controlled study was performed to in order to investigate the safety, tolerability and pharmacokinetics of VB-201 at a repeated, daily dose taken orally. The subjects were all healthy volunteers. Cohorts of six subjects each received a daily dose of 40 or 80 mg VB-201 in the morning, following at least 10 hours of fasting, for 14 days. 6 subjects received a placebo. The VB-201 was formulated in non-enterocoated capsules.\nFurther studies were performed on an additional cohort, which included six subjects receiving a daily dose of 80 mg VB-201, as described hereinabove, for 28 days. An additional two subjects received a placebo.\nPlasma samples obtained on day 0 (pre-dosing) and on day 14 from the subjects in each cohort (40 mg for 14 days, 80 mg for 14 days, and 80 mg for 28 days), and on day 28 from the subjects of the cohort receiving 80 mg VB-201 for 28 days, were assayed for C-reactive protein (CRP) by the high sensitivity CRP assay described hereinabove."}}, "note": "Where two headings read alike, the source gives them in different places.", "data": [{"smiles": "CCCCCCCCCCCCCCCCOCC(COP(=O)([O-])OCC[N+](C)(C)C)OCCCCC(=O)O", "note": "(centres unmarked) [VB-201, 1-hexadecyl-2-(4′-carboxybutyl)-glycerol-3-phosphocholine]", "values": [{"measurement": "efficacy in adjuvant-induced arthritis", "setting": "[1]", "result": "effective"}, {"measurement": "safety and tolerability", "setting": "[2]; enteric coated and non-coated capsules, 10 to 20 mg, fasting or fed", "result": "as safe and tolerable as placebo"}, {"measurement": "serious or treatment-emergent adverse events", "setting": "[2]; single dose 10-20 mg, coated and non-coated, fed and fasting", "result": "No serious or treatment-emergent adverse events occurred"}, {"measurement": "efficacy in collagen-induced arthritis", "setting": "[3]", "result": "effective"}, {"measurement": "IL-23 plasma levels", "setting": "interleukin-23 (IL-23); 40 mg per day, 14 days, both subjects with detectable pre-dose IL-23", "result": "considerably reduced"}, {"measurement": "IL-23 plasma levels", "setting": "interleukin-23 (IL-23); 80 mg per day, 28 days, all three subjects", "result": "considerably reduced"}, {"measurement": "migration of human primary monocytes towards MCP-1", "setting": "[4]; 8 μM VB-201, 30 min pre-treatment, MCP-1 50 ng/ml", "result": "significantly (P<0.05) reduced"}, {"measurement": "migration of human primary monocytes towards MCP-3", "setting": "[4]; 8 μM VB-201, 30 min pre-treatment, MCP-3 50 ng/ml", "result": "significantly (P<0.05) reduced"}, {"measurement": "migration of human primary monocytes towards MIP-1α", "setting": "[4]; 8 μM VB-201, 30 min pre-treatment, MIP-1α 50 ng/ml", "result": "significantly (P<0.05) reduced"}, {"measurement": "migration of human primary monocytes towards RANTES", "setting": "[4]; 8 μM VB-201, 30 min pre-treatment, RANTES 100 ng/ml", "result": "significantly (P<0.05) reduced"}, {"measurement": "dose dependence of inhibition of monocyte migration", "setting": "[4]; in vitro, 1.7-17 μM", "result": "dose-dependent"}, {"measurement": "reduction of plasma CRP levels", "setting": "C-reactive protein (CRP); 40 mg per day for 14 days", "result": 49, "unit": "%"}, {"measurement": "reduction of plasma CRP levels", "setting": "C-reactive protein (CRP); 80 mg per day for 14 days", "result": 43, "unit": "%"}, {"measurement": "reduction of plasma CRP levels", "setting": "C-reactive protein (CRP); 80 mg per day for 28 days", "result": 45, "unit": "%"}]}]}
